Patent publication US10479784B2, “Substituted pyrazin-2-amines as inhibitors of ATR kinase” (Vertex Pharmaceuticals Incorporated, priority 2008, dated 2019)

Each compound was assayed against full-length ATR (Homo sapiens (Human), UniProt Q13535) (assay: ATR Inhibition Assay (radioactive-phosphate incorporation)). Settings: read-out: ATR Ki.
Type: biochemical
Protocol: Compounds were screened for their ability to inhibit ATR kinase using a radioactive-phosphate incorporation assay. Assays were carried out in a mixture of 50 mM Tris/HCl (pH 7.5), 10 mM MgCl2 and 1 mM DTT. Final substrate concentrations were […] [γ-33P]ATP (3mCi 33P ATP/mmol ATP, Perkin Elmer) and 800 μM target peptide ([…]).
Assays were carried out at 25° C. in the presence of 5 nM full-length ATR. An assay stock buffer solution was prepared containing all of the reagents listed above, with the exception of ATP and the test compound of interest. […] The plate was pre-incubated for 10 minutes at 25° C. and the reaction initiated by addition of 15 μL [γ-33P]ATP (final concentration 10 μM).
The reaction was stopped after […] by the addition of 30 μL 0.1M phosphoric acid containing 2 mM ATP. A multiscreen phosphocellulose filter 96-well plate (Millipore, Cat no. MAPHN0B50) was pretreated with 100 μL 0.2M phosphoric acid prior to the addition of 45 μL of the stopped assay mixture. […] After drying, 100 μL Optiphase ‘SuperMix’ liquid scintillation cocktail (Perkin Elmer) was added to the well prior to scintillation counting (1450 Microbeta Liquid Scintillation Counter, Wallac).
After removing mean background values for all of the data points, Ki(app) data were calculated from non-linear regression analysis of the initial rate data using the Prism software package (GraphPad Prism version 3.0cx for Macintosh, GraphPad Software, San Diego Calif., USA).

Chain of full-length ATR (Q13535 whole entry): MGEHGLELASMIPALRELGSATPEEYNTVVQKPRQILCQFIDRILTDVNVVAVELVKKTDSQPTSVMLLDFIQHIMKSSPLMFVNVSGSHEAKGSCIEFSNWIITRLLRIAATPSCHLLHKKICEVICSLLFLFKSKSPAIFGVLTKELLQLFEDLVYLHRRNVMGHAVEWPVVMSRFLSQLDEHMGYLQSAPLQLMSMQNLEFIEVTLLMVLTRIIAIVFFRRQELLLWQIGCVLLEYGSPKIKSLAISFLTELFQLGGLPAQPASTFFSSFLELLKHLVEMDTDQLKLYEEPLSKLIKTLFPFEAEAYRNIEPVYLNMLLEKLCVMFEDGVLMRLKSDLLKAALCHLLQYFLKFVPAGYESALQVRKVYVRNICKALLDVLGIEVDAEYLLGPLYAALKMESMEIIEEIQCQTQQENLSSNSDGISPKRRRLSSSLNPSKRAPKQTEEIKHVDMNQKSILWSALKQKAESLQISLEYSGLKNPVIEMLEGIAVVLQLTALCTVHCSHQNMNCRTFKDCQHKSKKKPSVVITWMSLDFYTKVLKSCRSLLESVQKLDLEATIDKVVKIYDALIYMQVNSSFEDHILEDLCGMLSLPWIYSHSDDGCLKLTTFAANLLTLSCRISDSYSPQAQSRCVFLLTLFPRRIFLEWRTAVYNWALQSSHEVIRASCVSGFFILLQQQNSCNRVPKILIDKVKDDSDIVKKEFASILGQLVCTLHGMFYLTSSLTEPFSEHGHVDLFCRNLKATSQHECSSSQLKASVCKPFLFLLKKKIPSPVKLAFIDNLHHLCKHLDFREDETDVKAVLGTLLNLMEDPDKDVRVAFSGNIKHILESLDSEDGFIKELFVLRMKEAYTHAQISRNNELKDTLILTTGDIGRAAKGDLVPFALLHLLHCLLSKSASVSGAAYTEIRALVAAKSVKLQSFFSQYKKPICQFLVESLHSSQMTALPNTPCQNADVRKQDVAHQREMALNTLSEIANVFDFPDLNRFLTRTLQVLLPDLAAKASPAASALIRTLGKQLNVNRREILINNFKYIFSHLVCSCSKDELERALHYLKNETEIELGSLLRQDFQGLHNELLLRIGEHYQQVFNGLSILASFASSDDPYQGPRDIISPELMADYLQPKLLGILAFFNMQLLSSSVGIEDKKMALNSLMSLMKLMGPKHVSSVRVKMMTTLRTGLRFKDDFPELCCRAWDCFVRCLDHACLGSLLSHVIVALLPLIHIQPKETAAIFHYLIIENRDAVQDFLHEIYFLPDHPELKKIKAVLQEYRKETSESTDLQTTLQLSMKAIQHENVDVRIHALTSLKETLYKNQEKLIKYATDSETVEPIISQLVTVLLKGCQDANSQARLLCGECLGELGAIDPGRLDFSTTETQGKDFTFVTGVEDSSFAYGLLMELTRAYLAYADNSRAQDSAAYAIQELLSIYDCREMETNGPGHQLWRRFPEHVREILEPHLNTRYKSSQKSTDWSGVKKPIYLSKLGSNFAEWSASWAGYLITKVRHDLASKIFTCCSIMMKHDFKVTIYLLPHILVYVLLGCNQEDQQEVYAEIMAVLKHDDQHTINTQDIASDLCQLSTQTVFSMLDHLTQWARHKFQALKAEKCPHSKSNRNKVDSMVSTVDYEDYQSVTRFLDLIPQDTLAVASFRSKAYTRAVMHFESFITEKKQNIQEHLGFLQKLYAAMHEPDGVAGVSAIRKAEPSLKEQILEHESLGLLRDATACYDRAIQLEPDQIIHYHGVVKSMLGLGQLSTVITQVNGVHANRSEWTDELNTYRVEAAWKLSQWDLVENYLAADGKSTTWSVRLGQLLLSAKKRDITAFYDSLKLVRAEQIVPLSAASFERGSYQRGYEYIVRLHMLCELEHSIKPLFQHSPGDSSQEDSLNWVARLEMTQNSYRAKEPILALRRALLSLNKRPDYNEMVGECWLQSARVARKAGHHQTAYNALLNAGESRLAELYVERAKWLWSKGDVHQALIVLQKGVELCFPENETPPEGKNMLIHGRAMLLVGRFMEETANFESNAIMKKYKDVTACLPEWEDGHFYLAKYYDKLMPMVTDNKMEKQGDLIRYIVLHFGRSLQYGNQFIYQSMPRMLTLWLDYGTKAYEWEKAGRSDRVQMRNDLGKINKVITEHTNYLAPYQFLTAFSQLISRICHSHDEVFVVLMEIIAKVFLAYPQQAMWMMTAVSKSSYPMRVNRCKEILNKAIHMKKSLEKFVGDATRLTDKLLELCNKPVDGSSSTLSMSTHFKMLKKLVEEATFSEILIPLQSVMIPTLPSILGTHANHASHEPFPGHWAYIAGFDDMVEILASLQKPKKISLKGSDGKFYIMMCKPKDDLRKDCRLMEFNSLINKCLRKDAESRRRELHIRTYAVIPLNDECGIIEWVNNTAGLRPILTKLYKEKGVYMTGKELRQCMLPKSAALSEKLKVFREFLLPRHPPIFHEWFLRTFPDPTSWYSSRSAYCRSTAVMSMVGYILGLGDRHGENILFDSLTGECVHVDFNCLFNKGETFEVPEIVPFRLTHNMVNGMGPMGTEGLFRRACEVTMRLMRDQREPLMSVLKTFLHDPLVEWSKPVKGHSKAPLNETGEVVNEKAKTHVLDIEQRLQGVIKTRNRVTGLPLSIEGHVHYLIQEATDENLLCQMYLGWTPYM

Row | Structure (SMILES) | Ki [nM]
1 | CNCc1cccc(NC(=O)c2nc(-c3ccc(S(=O)(=O)C(C)C)cc3)cnc2N)c1 [VII-12] | ≤ 10
2 | Nc1ncc(-c2cccnc2)nc1-c1noc(-c2ccccc2)n1 [Compound I-145] | 10 to 100
3 | Nc1ncc(-c2cccnc2)nc1C(=O)Nc1cccc2c1OC(F)(F)O2 [Compound I-99, 3-amino-N-(2,2-difluorobenzo[d][1,3]dioxol-4-yl)-6-(pyridin-3-yl)pyrazine-2-carboxamide] | 100 to 5000
4 | Nc1ncc(-c2ccncc2)nc1-c1nnc(-c2cccs2)o1 [IA-141, 5-(4-pyridyl)-3-[5-(2-thienyl)-1,3,4-oxadiazol-2-yl]pyrazin-2-amine] | ≤ 10
5 | Nc1ncc(-c2ccc(C(=O)NCCN3CCCC3)cc2)nc1-c1nc2ccccc2[nH]1 [Compound I-133, 4-(5-amino-6-(1H-benzo[d]imidazol-2-yl)pyrazin-2-yl)-N-(2-(pyrrolidin-1-yl)ethyl)benzamide] | 10 to 100
6 | CNCc1ccc(NC(=O)c2nc(-c3ccc(S(=O)(=O)C(C)C)cc3)cnc2N)cc1 [VII-11] | 10 to 100
7 | CN(C)Cc1ccccc1-c1cnc(N)c(-c2nnc(-c3ccccc3)o2)n1 [IA-118, 5-(2-((dimethylamino)methyl)phenyl)-3-(5-phenyl-1,3,4-oxadiazol-2-yl)pyrazin-2-amine] | 100 to 5000
8 | CN1CCN(c2ccc(-c3cnc(N)c(-c4nnc(-c5ccccc5)o4)n3)cn2)CC1 [IA-200, 5-(6-(4-methylpiperazin-1-yl)pyridin-3-yl)-3-(5-phenyl-1,3,4-oxadiazol-2-yl)pyrazin-2-amine] | 100 to 5000
9 | CNCc1ccc(-c2nnc(-c3nc(-c4ccc(S(=O)(=O)C(C)C)c(F)c4)cnc3N)o2)cc1 [IA-314, 5-(3-fluoro-4-isopropylsulfonyl-phenyl)-3-[5-[4-(methylaminomethyl)phenyl]-1,3,4-oxadiazol-2-yl]pyrazin-2-amine] | ≤ 10
10 | Nc1ncc(-c2ccccc2)nc1-c1nc2cccc(O)c2[nH]1 [Compound I-113, 2-(3-amino-6-phenylpyrazin-2-yl)-1H-benzo[d]imidazol-7-ol] | 100 to 5000
11 | CC(C)S(=O)(=O)c1ccc(-c2cnc(N)c(-c3nnc(-c4ccc(C#N)cc4)o3)n2)cc1 [IA-273, 4-[5-[3-amino-6-(4-isopropylsulfonylphenyl)pyrazin-2-yl]-1,3,4-oxadiazol-2-yl]benzonitrile] | 10 to 100
12 | Nc1ncc(-c2ccc(C(=O)N3CCCC3)cc2)nc1C(=O)Nc1ccccc1 [Compound I-70, 3-amino-N-phenyl-6-(4-(pyrrolidine-1-carbonyl)phenyl)pyrazine-2-carboxamide] | 10 to 100
13 | Nc1ncc(-c2ccccc2Br)nc1-c1nnc(-c2ccccc2)o1 [IA-176, 5-(2-bromophenyl)-3-(5-phenyl-1,3,4-oxadiazol-2-yl)pyrazin-2-amine] | 100 to 5000
14 | NC(=O)c1cccc(-c2cnc(N)c(C(=O)Nc3ccccc3)n2)c1 [Compound I-18, 3-amino-6-(3-carbamoylphenyl)-N-phenylpyrazine-2-carboxamide] | 100 to 5000
15 | CC(C)S(=O)(=O)c1ccc(-c2cnc(N)c(-c3nnc(N4CCC(N)CC4)o3)n2)cc1 [IA-109, 3-[5-(4-amino-1-piperidyl)-1,3,4-oxadiazol-2-yl]-5-(4-isopropylsulfonylphenyl)pyrazin-2-amine] | 100 to 5000
16 | Cc1ccsc1-c1nnc(-c2nc(-c3ccc(C(=O)N(C)C)cc3)cnc2N)o1 [IA-167, 4-[5-amino-6-[5-(3-methyl-2-thienyl)-1,3,4-oxadiazol-2-yl]pyrazin-2-yl]-N,N-dimethyl-benzamide] | ≤ 10
17 | CC(C)S(=O)(=O)c1ccc(-c2cnc(N)c(-c3nnc(C(=O)N4CC(N)C4)o3)n2)cc1 [IA-120, (3-aminoazetidin-1-yl)-[5-[3-amino-6-(4-isopropylsulfonylphenyl)pyrazin-2-yl]-1,3,4-oxadiazol-2-yl]methanone] | 10 to 100
18 | CC(CN(C)C)S(=O)(=O)c1ccc(-c2cnc(N)c(-c3nnc(-c4ccccc4F)o3)n2)cc1 (stereo not shown) [IA-337, 5-[4-[2-(dimethylamino)-1-methyl-ethyl]sulfonylphenyl]-3-[5-(2-fluorophenyl)-1,3,4-oxadiazol-2-yl]pyrazin-2-amine] | ≤ 10
19 | CC(C)S(=O)(=O)c1ccc(-c2cnc(N)c(-c3nnc(NC(=O)CN)o3)n2)cc1 [IA-82, 2-amino-N-[5-[3-amino-6-(4-isopropylsulfonylphenyl)pyrazin-2-yl]-1,3,4-oxadiazol-2-yl]acetamide] | 100 to 5000
20 | N#Cc1cc(C(=O)N2CCCNCC2)ccc1-c1cnc(N)c(C(=O)Nc2nc3ccccc3[nH]2)n1 [Compound V-2] | ≤ 10

Row | Structure (SMILES) | Ki [nM]
21 | Nc1ncc(-c2cccc3[nH]ccc23)nc1-c1nnc(-c2ccccc2)o1 [IA-59] | 10 to 100
22 | CS(=O)(=O)c1ccccc1-c1cnc(N)c(-c2nnc(-c3ccccc3)o2)n1 [IA-190, 5-(2-methylsulfonylphenyl)-3-(5-phenyl-1,3,4-oxadiazol-2-yl)pyrazin-2-amine] | 100 to 5000
23 | CC(=O)Nc1ccc(NC(=O)c2nc(-c3cccnc3)cnc2N)cc1 [Compound I-93, 3-amino-N-(4-ethanamidophenyl)-6-(pyridin-3-yl)pyrazine-2-carboxamide] | 100 to 5000
24 | N#Cc1cc(C(=O)N2CCCNCC2)ccc1-c1cnc(N)c(-c2nnc(-c3cccs3)o2)n1 [IA-152, 2-(5-amino-6-(5-(thiophen-2-yl)-1,3,4-oxadiazol-2-yl)pyrazin-2-yl)-5-(1,4-diazepane-1-carbonyl)benzonitrile] | ≤ 10
25 | CC(C)S(=O)(=O)c1ccc(-c2cnc(N)c(-c3nnc(N4CCC(N)C4)o3)n2)cc1 (stereo not shown) [IA-188, 3-[5-(3-aminopyrrolidin-1-yl)-1,3,4-oxadiazol-2-yl]-5-(4-isopropylsulfonylphenyl)pyrazin-2-amine] | 100 to 5000
26 | CC(=O)Nc1ccccc1-c1cnc(N)c(-c2nnc(-c3ccccc3)o2)n1 [IA-267, N-(2-(5-amino-6-(5-phenyl-1,3,4-oxadiazol-2-yl)pyrazin-2-yl)phenyl)ethanamide] | 10 to 100
27 | COc1ccc(-c2cnc(N)c(C(=O)Nc3ccccc3)n2)cc1 [Compound I-1, 3-amino-6-(4-methoxyphenyl)-N-phenylpyrazine-2-carboxamide] | 100 to 5000
28 | CN(C)C(=O)c1ccc(-c2cnc(N)c(-c3nnc(-c4ccc(F)cc4)o3)n2)cc1 [IA-36] | 10 to 100
29 | CC(C)S(=O)(=O)c1ccc(-c2cnc(N)c(-c3nnc(-c4ccc(CNC5CCOC5)cc4F)o3)n2)cc1 (stereo not shown) [IA-345, 3-[5-[2-fluoro-4-[(tetrahydrofuran-3-ylamino)methyl]phenyl]-1,3,4-oxadiazol-2-yl]-5-(4-isopropylsulfonylphenyl)pyrazin-2-amine] | ≤ 10
30 | N#Cc1cnccc1-c1cnc(N)c(-c2nnc(-c3ccccc3)o2)n1 [IA-35] | ≤ 10
31 | Nc1ncc(-c2cccnc2)nc1C(=O)Nc1ccncc1 [Compound I-98, 3-amino-6-(pyridin-3-yl)-N-(pyridin-4-yl)pyrazine-2-carboxamide] | 100 to 5000
32 | Nc1ncc(-c2ccc(F)c(C(=O)N3CCOCC3)c2)nc1-c1nc2ccccc2[nH]1 [Compound I-131, (5-(5-amino-6-(1H-benzo[d]imidazol-2-yl)pyrazin-2-yl)-2-fluorophenyl) (morpholino)methanone] | 10 to 100
33 | CN(C)CCS(=O)(=O)c1ccc(-c2cnc(N)c(-c3nnc(-c4ccc(O)cc4)o3)n2)cc1 [IA-191, 4-[5-[3-amino-6-[4-(2-dimethylaminoethylsulfonyl)phenyl]pyrazin-2-yl]-1,3,4-oxadiazol-2-yl]phenol] | ≤ 10
34 | CS(=O)(=O)Nc1ccc(-c2cnc(N)c(C(=O)Nc3ccccc3)n2)cc1 [Compound I-5, 3-amino-6-(4-(methylsulfonamido)phenyl)-N-phenylpyrazine-2-carboxamide] | 10 to 100
35 | CN(C)C(=O)c1ccc(-c2cnc(N)c(-c3nnc(-c4cccc(CO)c4)o3)n2)cc1 [IA-198, 4-[5-amino-6-[5-[3-(hydroxymethyl)phenyl]-1,3,4-oxadiazol-2-yl]pyrazin-2-yl]-N,N-dimethyl-benzamide] | 10 to 100
36 | CN(C)c1ccccc1-c1cnc(N)c(-c2nnc(-c3ccccc3)o2)n1 [IA-94, 5-(2-(dimethylamino)phenyl)-3-(5-phenyl-1,3,4-oxadiazol-2-yl)pyrazin-2-amine] | 100 to 5000
37 | CC(C)S(=O)(=O)c1ccc(-c2cnc(N)c(-c3nnc(N4CC(N)C4)o3)n2)cc1 [IA-111, 3-[5-(3-aminoazetidin-1-yl)-1,3,4-oxadiazol-2-yl]-5-(4-isopropylsulfonylphenyl)pyrazin-2-amine] | 100 to 5000
38 | CC(C)S(=O)(=O)c1ccc(-c2cnc(N)c(-c3nnc(-c4ccc(CN[C@H](C)CO)cc4F)o3)n2)cc1 [IA-333, (R)-2-(4-(5-(3-amino-6-(4-(isopropylsulfonyl)phenyl)pyrazin-2-yl)-1,3,4-oxadiazol-2-yl)-3-fluorobenzylamino)propan-1-ol] | ≤ 10
39 | COCCN(C)C(=O)c1cccc(-c2cnc(N)c(C(=O)Nc3ccccc3)n2)c1 [Compound I-67, 3-amino-6-(3-((2-methoxyethyl)(methyl)carbamoyl)phenyl)-N-phenylpyrazine-2-carboxamide] | 10 to 100
40 | CN(C)C(=O)c1ccc(-c2cnc(N)c(-c3nnc(-c4cccs4)o3)n2)cc1 [IA-52] | ≤ 10
